Reference: the NIST ThermoML archive (doi:10.1016/j.fluid.2018.04.025)

Assay: xn = mol fraction of the nth substance listed
Details: 101 kPa, Liquid; for viscosity: Falling or rolling sphere viscometry; for speed of sound: Frequency=3 MHz, Sing-around technique in a fixed-path interferometer; for mass density: Vibrating tube method

CCCC[n+]1ccn(C)c1.O=S(=O)([N-]S(=O)(=O)C(F)(F)F)C(F)(F)F + CCCCO
Details	mass density [kg/m3]	speed of sound [m/s]	viscosity [mPa·s]
298.15 K, x1 = 0.1041	977.145	1204.1	4.37
298.15 K, x1 = 0.203	1088.59	1195.1	6.8
298.15 K, x1 = 0.3026	1170.97	1196.1	9.05
298.15 K, x1 = 0.409	1238.03	1200.2	11.83
298.15 K, x1 = 0.4987	1282.27	1204.3	14.91
298.15 K, x1 = 0.603	1325.15	1209.3	19.73
298.15 K, x1 = 0.6973	1357.81	1214.1	24.95
298.15 K, x1 = 0.809	1390.36	1219.2	32.11
298.15 K, x1 = 0.9104	1415.6	1223	40.26
298.15 K, x1 = 1	1436.02	1227.3	51.22
303.15 K, x1 = 0.1041	972.795	1189.7	3.85
303.15 K, x1 = 0.203	1084	1181.7	5.85
303.15 K, x1 = 0.3026	1166.33	1183.4	7.68
303.15 K, x1 = 0.409	1233.48	1188.1	9.93
303.15 K, x1 = 0.4987	1277.72	1192.4	12.53
303.15 K, x1 = 0.603	1320.71	1197.7	16.62
303.15 K, x1 = 0.6973	1353.3	1202.5	20.95
303.15 K, x1 = 0.809	1385.78	1207.8	26.73
303.15 K, x1 = 0.9104	1411.02	1211.9	33.01
303.15 K, x1 = 1	1431.22	1216.3	41.91
308.15 K, x1 = 0.1041	968.785	1175.3	3.27
308.15 K, x1 = 0.203	1079.65	1168.5	5.03
308.15 K, x1 = 0.3026	1161.89	1170.8	6.62
308.15 K, x1 = 0.409	1228.96	1176	8.51
308.15 K, x1 = 0.4987	1273.42	1180.7	10.71
308.15 K, x1 = 0.603	1316.29	1186.2	14.13
308.15 K, x1 = 0.6973	1348.83	1191.2	17.82
308.15 K, x1 = 0.809	1381.24	1196.7	22.61
308.15 K, x1 = 0.9104	1406.45	1200.9	27.62
308.15 K, x1 = 1	1426.43	1205.5	34.63
313.15 K, x1 = 0.1041	964.582	1161	2.87
313.15 K, x1 = 0.203	1075.17	1155.3	4.39
313.15 K, x1 = 0.3026	1157.28	1158.3	5.75
313.15 K, x1 = 0.409	1224.36	1163.9	7.36
313.15 K, x1 = 0.4987	1268.95	1168.9	9.24
313.15 K, x1 = 0.603	1311.81	1174.7	12.24
313.15 K, x1 = 0.6973	1344.2	1180	15.31
313.15 K, x1 = 0.809	1376.73	1185.6	19.32
313.15 K, x1 = 0.9104	1401.97	1189.9	23.41
313.15 K, x1 = 1	1421.64	1194.7	28.93
318.15 K, x1 = 0.1041	960.208	1146.9	2.53
318.15 K, x1 = 0.203	1070.62	1142.3	3.86
318.15 K, x1 = 0.3026	1152.59	1145.8	5.04
318.15 K, x1 = 0.409	1219.7	1151.9	6.42
318.15 K, x1 = 0.4987	1264.59	1157.2	8.04
318.15 K, x1 = 0.603	1307.37	1163.4	10.61
318.15 K, x1 = 0.6973	1339.66	1168.8	13.32
318.15 K, x1 = 0.809	1372.24	1174.6	16.64
318.15 K, x1 = 0.9104	1397.35	1179.1	19.93
318.15 K, x1 = 1	1416.84	1184	24.63
323.15 K, x1 = 0.1041	955.94	1132.9	2.24
323.15 K, x1 = 0.203	1065.98	1129.4	3.42
323.15 K, x1 = 0.3026	1147.85	1133.5	4.45
323.15 K, x1 = 0.409	1214.91	1140	5.65
323.15 K, x1 = 0.4987	1259.97	1145.7	7.07
323.15 K, x1 = 0.603	1302.8	1152.1	9.29
323.15 K, x1 = 0.6973	1335.11	1157.8	11.74
323.15 K, x1 = 0.809	1367.53	1163.8	14.53
323.15 K, x1 = 0.9104	1392.5	1168.4	17.32
323.15 K, x1 = 1	1411.89	1173.5	21.11

CCCC[n+]1ccn(C)c1.O=S(=O)([N-]S(=O)(=O)C(F)(F)F)C(F)(F)F + CCCO
Details	mass density [kg/m3]	speed of sound [m/s]	viscosity [mPa·s]
298.15 K, x1 = 0.1034	997.935	1181.5	3.73
298.15 K, x1 = 0.203	1117.34	1181.2	5.98
298.15 K, x1 = 0.3043	1200.89	1188.3	8.11
298.15 K, x1 = 0.409	1263.74	1196.8	10.82
298.15 K, x1 = 0.5068	1308.36	1203	14.12
298.15 K, x1 = 0.603	1343.44	1209.4	19.03
298.15 K, x1 = 0.6981	1371.86	1214.5	24.41
298.15 K, x1 = 0.809	1399.1	1219.9	31.43
298.15 K, x1 = 0.8925	1416.56	1223.7	39.52
298.15 K, x1 = 1	1436.02	1227.3	51.22
303.15 K, x1 = 0.1034	993.513	1167.2	3.24
303.15 K, x1 = 0.203	1112.85	1168	5.16
303.15 K, x1 = 0.3043	1196.18	1175.7	6.94
303.15 K, x1 = 0.409	1259	1184.7	9.22
303.15 K, x1 = 0.5068	1303.62	1191.2	11.91
303.15 K, x1 = 0.603	1338.71	1197.8	16.24
303.15 K, x1 = 0.6981	1367.11	1203.2	20.52
303.15 K, x1 = 0.809	1394.38	1208.6	26.11
303.15 K, x1 = 0.8925	1411.81	1212.6	32.53
303.15 K, x1 = 1	1431.22	1216.3	41.91
308.15 K, x1 = 0.1034	989.047	1152.9	2.85
308.15 K, x1 = 0.203	1108.26	1154.8	4.5
308.15 K, x1 = 0.3043	1191.48	1163.1	6.01
308.15 K, x1 = 0.409	1254.22	1172.6	7.94
308.15 K, x1 = 0.5068	1298.84	1179.5	10.21
308.15 K, x1 = 0.603	1333.94	1186.3	13.72
308.15 K, x1 = 0.6981	1362.35	1191.8	17.43
308.15 K, x1 = 0.809	1389.63	1197.5	22.13
308.15 K, x1 = 0.8925	1407.06	1201.6	27.21
308.15 K, x1 = 1	1426.43	1205.5	34.63
313.15 K, x1 = 0.1034	984.572	1138.7	2.53
313.15 K, x1 = 0.203	1103.58	1141.7	3.95
313.15 K, x1 = 0.3043	1186.72	1150.7	5.25
313.15 K, x1 = 0.409	1249.43	1160.6	6.9
313.15 K, x1 = 0.5068	1294.03	1167.8	8.85
313.15 K, x1 = 0.603	1329.15	1175	11.93
313.15 K, x1 = 0.6981	1357.57	1180.7	14.94
313.15 K, x1 = 0.809	1384.85	1186.4	18.72
313.15 K, x1 = 0.8925	1402.29	1190.7	22.94
313.15 K, x1 = 1	1421.64	1194.7	28.93
318.15 K, x1 = 0.1034	979.997	1124.5	2.27
318.15 K, x1 = 0.203	1098.85	1128.7	3.69
318.15 K, x1 = 0.3043	1181.93	1138.3	4.84
318.15 K, x1 = 0.409	1244.67	1148.8	6.15
318.15 K, x1 = 0.5068	1289.19	1156.3	7.74
318.15 K, x1 = 0.603	1324.35	1163.7	10.34
318.15 K, x1 = 0.6981	1352.76	1169.5	13.01
318.15 K, x1 = 0.809	1380.05	1175.5	16.35
318.15 K, x1 = 0.8925	1397.5	1180	19.74
318.15 K, x1 = 1	1416.84	1184	24.63
323.15 K, x1 = 0.1034	975.381	1110.5	2.03
323.15 K, x1 = 0.203	1094.03	1115.8	2.98
323.15 K, x1 = 0.3043	1177.02	1126	3.93
323.15 K, x1 = 0.409	1239.67	1137	5.25
323.15 K, x1 = 0.5068	1284.24	1144.8	6.82
323.15 K, x1 = 0.603	1319.4	1152.6	9.13
323.15 K, x1 = 0.6981	1347.82	1158.6	11.42
323.15 K, x1 = 0.809	1375.13	1164.6	14.23
323.15 K, x1 = 0.8925	1392.58	1169.3	17.01
323.15 K, x1 = 1	1411.89	1173.5	21.11
